Measured values published in PubChem BioAssay (NCI).
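96-well plates; 48 h exposure; 5 concentrations. Endpoints by linear interpolation between flanking doses. Not reached: highest tested concentration assigned. At the GI50, growth is halved. TGI marks complete inhibition of growth.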

What was measured:
Assay in all cases: NCI anticancer screen, dose series, 48 h
[1] = system: U251 CNS
[2] = system: DU-145 prostate
[3] = system: NCI-H23 lung
[4] = system: UACC-257 melanoma
[5] = system: HOP-62 NSCLC
[6] = system: TK-10 renal
[7] = system: K-562 leukemia
[8] = system: COLO 205 colon
[9] = system: LOX IMVI melanoma
[10] = system: SK-OV-3 ovarian

| Compound | GI50 [1] | TGI [1] | GI50 [2] | TGI [2] | GI50 [3] | TGI [3] | GI50 [4] | TGI [4] | GI50 [5] | TGI [5] | GI50 [6] | TGI [6] | GI50 [7] | TGI [7] | GI50 [8] | TGI [8] | GI50 [9] | TGI [9] | GI50 [10] | TGI [10] |
| --- | --- | --- | --- | --- | --- | --- | --- | --- | --- | --- | --- | --- | --- | --- | --- | --- | --- | --- | --- | --- |
| O=C(COc1cccc(/C=C2\COc3ccccc3C2=O)c1)Nc1nccs1 | 1.73 µM | 3.11 µM | 1.96 µM | 3.37 µM | 1.95 µM | 3.94 µM | 2.06 µM | 5.28 µM | 4.11 µM | 15.9 µM | 3.05 µM | 5.52 µM | 1.44 µM | 29.2 µM | 2.26 µM | 5.24 µM | 1.82 µM | 3.4 µM | 17.4 µM | 31.1 µM |
| CCC(Sc1nnc2c3ccccc3n(CC)c2n1)C(=O)Nc1ccccc1OC (stereo not given) | > 100 µM | > 100 µM | > 100 µM | > 100 µM | 3.41 µM | > 100 µM | > 100 µM | > 100 µM | 3.99 µM | > 71.9 µM | > 100 µM | > 100 µM | > 100 µM | > 100 µM | > 100 µM | > 100 µM | > 100 µM | > 100 µM | > 100 µM | > 100 µM |
| CCCN(CCC)c1ccc(CO)c(C)c1 | 74 µM | > 100 µM | > 100 µM | > 100 µM | 35.4 µM | > 100 µM | 11.6 µM | 67.3 µM | > 100 µM | > 100 µM | 13.8 µM | 61 µM | 27.4 µM | > 100 µM | 19.4 µM | 68.8 µM | > 100 µM | > 100 µM | > 100 µM | > 100 µM |
| O=Cc1ccc(-c2ccc(-c3ccc(C=O)s3)o2)s1 |  | > 50.8 µM |  | > 100 µM |  | > 100 µM |  | 16.2 µM |  | > 100 µM |  | 7.33 µM |  | > 100 µM |  | 37 µM |  | > 100 µM |  | > 100 µM |
| O=C1C=C(Nc2ccccc2C(=O)CC(=O)C(=O)Nc2cccc(C(F)(F)F)c2)c2ccccc2C1=O |  | 96.5 µM |  | > 100 µM |  | 30.5 µM |  | 31.8 µM |  | > 72.7 µM |  | > 100 µM |  | > 94.9 µM |  | > 100 µM |  | 27.3 µM |  | > 100 µM |
| COc1cc(OC)c2c(=O)c(O)c(-c3ccc(OC)c(OC)c3)oc2c1 |  | > 100 µM |  | > 100 µM |  | > 100 µM |  | > 100 µM |  | 19.2 µM |  | > 100 µM |  | > 100 µM |  | > 100 µM |  | > 100 µM |  | > 100 µM |
| COc1ccc(C(O)CNC(=O)c2ccccc2)cc1 (stereo not given) |  | > 100 µM |  | > 100 µM |  | > 100 µM |  | > 100 µM |  | > 100 µM |  | > 100 µM |  | > 100 µM |  | > 100 µM |  | > 100 µM |  | > 100 µM |
| COC(=O)CCC(=O)c1c(C)[nH]c(/C=C2\N=C(c3ccc[nH]3)C=C2OC)c1C | 1.08 µM | 3.2 µM | 0.344 µM | 1.8 µM | 1.79 µM | 4.7 µM | 2.27 µM | 6.37 µM | 0.85 µM | 2.33 µM | 1.18 µM | 7.74 µM | 1.24 µM | 3.18 µM | 1.04 µM | 3.29 µM | 0.0666 µM | 0.261 µM | 6.16 µM | 13.8 µM |
